# Results taken from patent publication US4324728A, “Compound nanaomycin A and derivatives thereof and a process for producing the same” (The Kitasato Institute, priority 1976, dated 1982).
# Read-outs that look alike come from different tables or passages of the source.
# What was measured:
# [1] = system: Staphylococcus aureus FDA 209P; assay: Minimal inhibitory concentration (agar); assay type: cell-based; conditions: FDA209P, 48 h, nutrient agar, pH 7.0, 2 days, 37° C.
# [2] = system: Bacillus subtilis PCI 219; assay: Minimal inhibitory concentration (agar); assay type: cell-based; conditions: pH 7.0, 2 days, 37° C.
# Experimental: (§1) Medium N nutrient agar (pH 7.0, 2 days, 37° C.)
# (§2) MIC Minimal inhibitory concentration
# (§3) N nutrient agar (pH 7.0, 2 days, 37° C.)
# Sarcina lutea PCI 1001 = assay: Minimal inhibitory concentration (agar); assay type: cell-based; conditions: pH 7.0, 2 days, 37° C.
# Experimental: as §1, §2, §3
# [3] = system: Staphylococcus aureus FDA 209P (JC-1); assay: Minimal inhibitory concentration (agar); assay type: cell-based; conditions: FDA209P, 48 h, nutrient agar, pH 7.0, 2 days, 37° C.
# Experimental: as §1, §2, §3
# Salmonella typhimurium = assay: Minimal inhibitory concentration (agar); assay type: cell-based; conditions: Salmonella enterica, 48 h, pH 7.0, 2 days, 37° C.
# Candida albicans = assay: Minimal inhibitory concentration (agar); assay type: cell-based; conditions: pH 6.4, 4 days, 27° C.
# Experimental: P potato agar (pH 6.4, 4 days, 27° C.)
# as §2
# Minimal inhibitory concentration was assayed by agar dilution method
# (potato agar, pH 6.4, 27° C., 4 days).
# Saccharomyces sake = assay: Minimal inhibitory concentration (agar); assay type: cell-based; conditions: Saccharomyces, 96 h, pH 6.4, 4 days, 27° C., read-out: MIC
# [4] = system: Aspergillus niger ATCC 6275; assay: Minimal inhibitory concentration (agar); assay type: cell-based; conditions: ATCC6275, 96 h, pH 6.4, 4 days, 27° C.
# Microsporum gypseum 704 = assay: Minimal inhibitory concentration (agar); assay type: cell-based; conditions: Nannizzia gypsea, 704, 96 h; potato agar, pH 6.4, 4 days, 27° C.
# Trichophyton asteroides = assay: Minimal inhibitory concentration (agar); assay type: cell-based; conditions: pH 6.4, 4 days, 27° C.
# Trichophyton ferrugineum = assay: Minimal inhibitory concentration (agar); assay type: cell-based; conditions: pH 6.4, 4 days, 27° C.
# [5] = system: Trichophyton interdigitale; assay: Minimal inhibitory concentration (agar); assay type: cell-based; conditions: Trichophyton interdigitale, 96 h; potato agar, pH 6.4, 4 days, 27° C.; read-out: MIC
# Trichophyton roseum = assay: Minimal inhibitory concentration (agar); assay type: cell-based; conditions: pH 6.4, 4 days, 27° C.
# [6] = system: Mycobacterium smegmatis ATCC 607; assay: Minimal inhibitory concentration (agar); assay type: cell-based; conditions: Mycolicibacterium smegmatis, ATCC607, 48 h; nutrient agar, pH 7.0, 2 days, 37° C.
# [7] = system: Aspergillus fumigatus IAM 2162; assay: Minimal inhibitory concentration (agar); assay type: cell-based; conditions: IAM2162, 96 h, potato agar, pH 6.4, 4 days, 27° C.
# Experimental: | P potato agar (pH 6.4, 4 days, 27° C.)
# [8] = system: Aerobacter aerogenes IAM 1183; assay: Minimal inhibitory concentration (agar); assay type: cell-based; conditions: Klebsiella aerogenes, IAM1183, 48 h; nutrient agar, pH 7.0, 2 days, 37° C.
# Experimental: as §3
# Bacillus cereus T = assay: Minimal inhibitory concentration (agar); assay type: cell-based; conditions: 48 h, nutrient agar, pH 7.0, 2 days, 37° C.
# Experimental: as §3
# [9] = system: Corynebacterium paurometabolum; assay: Minimal inhibitory concentration (agar); assay type: cell-based; conditions: Tsukamurella paurometabola, 48 h; nutrient agar, pH 7.0, 2 days, 37° C.
# Experimental: as §3
# Proteus mirabilis = assay: Minimal inhibitory concentration (agar); assay type: cell-based; conditions: 48 h, nutrient agar, pH 7.0, 2 days, 37° C.
# Experimental: as §3
# [10] = system: Proteus vulgaris IFO 3167; assay: Minimal inhibitory concentration (agar); assay type: cell-based; conditions: IFO3167, 48 h, nutrient agar, pH 7.0, 2 days, 37° C.
# Experimental: as §3
# [11] = system: Pseudomonas aeruginosa P-3; assay: Minimal inhibitory concentration (agar); assay type: cell-based; conditions: P3, 48 h, nutrient agar, pH 7.0, 2 days, 37° C.
# Experimental: as §3
# Shigella sonnei E 33 = assay: Minimal inhibitory concentration (agar); assay type: cell-based; conditions: E33, 48 h, nutrient agar, pH 7.0, 2 days, 37° C.
# Experimental: as §3
# [12] = system: Staphylococcus aureus FS 1227 (PC-R); assay: Minimal inhibitory concentration (agar); assay type: cell-based; conditions: 48 h, nutrient agar, pH 7.0, 2 days, 37° C., penicillin resistant strain
# Experimental: as §3
# [13] = system: Staphylococcus aureus KB 61 (R-TC, EM); assay: Minimal inhibitory concentration (agar); assay type: cell-based; conditions: 48 h, nutrient agar, pH 7.0, 2 days, 37° C., tetracyclin, erythromycin resistant strain, read-out: MIC
# Experimental: as §3
# [14] = system: Staphylococcus aureus KB 64 (R-TC, EM); assay: Minimal inhibitory concentration (agar); assay type: cell-based; conditions: 48 h, nutrient agar, pH 7.0, 2 days, 37° C., tetracyclin, erythromycin resistant strain, read-out: MIC
# Experimental: as §3
# [15] = system: Mycoplasma gallisepticum KP-13; assay: Antimycoplasma activity, inhibition zone; assay type: cell-based; conditions: Eiken PPLO agar, pH 7.8, 8 days, 37° C.
# Experimental: E Eiken PPLO agar (pH 7.8, 8 days, 37° C.)
# (§4) Nanaomycin A and derivatives thereof according to the present invention are assayed in a similar manner to that designated as the paper disc method by Itoh, et al [J. of Antibiotics, 24, 855-859 (1971)], for example, as follows: […]
# [16] = system: Acholeplasma laidlawii (A); assay: Antimycoplasma activity, inhibition zone; assay type: cell-based; conditions: Hokken PPLO agar, pH 7.8, 8 days, 37° C.
# Experimental: H Hokken PPLO agar (pH 7.8, 8 days, 37° C.)
# as §4
# Gram-positive bacteria = assay: Antibacterial activity (in words); assay type: cell-based
# mycoplasmas = assay: Antimycoplasma activity (in words); assay type: cell-based
# Solubility = assay type: physicochemical
# in vivo = conditions: mouse, ip
# [17] = Bacillus subtilis, PCI219, 48 h, pH 7, nutrient agar, read-out: MIC
# [18] = Micrococcus luteus, PCI1001, 48 h, pH 7, nutrient agar, read-out: MIC
# [19] = Candida albicans, 96 h, pH 6.4, potato agar, read-out: MIC
# [20] = Trichophyton, 96 h, pH 6.4, potato agar, read-out: MIC
# [21] = Microsporum ferrugineum, 96 h, pH 6.4, potato agar, read-out: MIC
smiles,measurement,setting,value
"CC1OC(CC(=O)O)CC2=C1C(=O)c1c(O)cccc1C2=O (centres unmarked) [Nanaomycin A, nanaomycin A]",MIC,[1],3.9 µg/mL
same,MIC,[2]; [17],6.3 µg/mL
same,MIC,[2]; nutrient agar,7.8 µg/mL
same,MIC,Sarcina lutea PCI 1001; [18],1.6 µg/mL
same,MIC,Sarcina lutea PCI 1001; nutrient agar,2.0 µg/mL
same,MIC,[3],2 µg/mL
same,MIC,Salmonella typhimurium; nutrient agar,100 µg/mL
same,MIC,"Salmonella typhimurium; pH 7, nutrient agar",62.5 µg/mL
same,MIC,Candida albicans; [19],50 µg/mL
same,MIC,Candida albicans; potato agar,31.2 µg/mL
same,MIC,"Saccharomyces sake; pH 6.4, potato agar",12.5 µg/mL
same,MIC,Saccharomyces sake; potato agar,31.2 µg/mL
same,MIC,"[4]; pH 6.4, potato agar",62.5 µg/mL
same,MIC,"[4]; potato agar, read-out: MIC",25 µg/mL
same,MIC,Microsporum gypseum 704,0.8 µg/mL
same,MIC,Trichophyton asteroides; [20],0.8 µg/mL
same,MIC,Trichophyton asteroides; potato agar,1.6 µg/mL
same,MIC,Trichophyton ferrugineum; [21],0.8 µg/mL
same,MIC,Trichophyton ferrugineum; potato agar,1.6 µg/mL
same,MIC,[5],1.6 µg/mL
same,MIC,Trichophyton roseum; [20],< 0.2 µg/mL
same,MIC,Trichophyton roseum; potato agar,0.4 µg/mL
same,MIC,[6],100 µg/mL
same,MIC,[7],6.3 µg/mL
same,MIC,[8],> 100 µg/mL
same,MIC,Bacillus cereus T,12.5 µg/mL
same,MIC,[9],12.5 µg/mL
same,MIC,Proteus mirabilis,> 100 µg/mL
same,MIC,[10],50 µg/mL
same,MIC,[11],> 100 µg/mL
same,MIC,Shigella sonnei E 33,100 µg/mL
same,MIC,[12],1.6 µg/mL
same,MIC,[13],1.6 µg/mL
same,MIC,[14],0.8 µg/mL
same,Inhibition Zone,[15],28.7 mm
same,Inhibition Zone,[16],none
same,activity against Gram-positive bacteria,Gram-positive bacteria,strong activity
same,activity against mycoplasma(s),mycoplasmas,high activity
same,Solubility in ether,Solubility,Easily soluble
same,"Solubility in methanol, ethanol, ethylacetate, chloroform and acetone",Solubility,Easily soluble
same,Solubility in n-hexane and petroleum ether,Solubility,Insoluble
same,Solubility in water,Solubility,Insoluble
same,LD50,in vivo,28.2 mg/kg
"CC(=O)Oc1cccc2c1C(=O)C1=C(CC(CC(=O)O)OC1C)C2=O (centres unmarked) [Acetylnanaomycin A, acetylnanaomycin A]",MIC,[1],1.6 µg/mL
same,MIC,[2]; [17],3.1 µg/mL
same,MIC,Sarcina lutea PCI 1001; [18],1.6 µg/mL
same,MIC,[3],0.8 µg/mL
same,MIC,Salmonella typhimurium; nutrient agar,50 µg/mL
same,MIC,Candida albicans; [19],25 µg/mL
same,MIC,"Saccharomyces sake; pH 6.4, potato agar",12.5 µg/mL
same,MIC,"[4]; potato agar, read-out: MIC",25 µg/mL
same,MIC,Microsporum gypseum 704,0.4 µg/mL
same,MIC,Trichophyton asteroides; [20],0.8 µg/mL
same,MIC,Trichophyton ferrugineum; [21],0.8 µg/mL
same,MIC,[5],1.6 µg/mL
same,MIC,Trichophyton roseum; [20],0.4 µg/mL
same,MIC,[6],50 µg/mL
same,MIC,[7],6.3 µg/mL
same,MIC,[8],> 100 µg/mL
same,MIC,Bacillus cereus T,25 µg/mL
same,MIC,[9],6.3 µg/mL
same,MIC,Proteus mirabilis,> 100 µg/mL
same,MIC,[10],50 µg/mL
same,MIC,[11],> 100 µg/mL
same,MIC,Shigella sonnei E 33,100 µg/mL
same,MIC,[12],0.8 µg/mL
same,MIC,[13],0.8 µg/mL
same,MIC,[14],0.4 µg/mL
same,Inhibition Zone,[15],28.5 mm
same,Inhibition Zone,[16],none
same,activity against Gram-positive bacteria,Gram-positive bacteria,a strong activity against Gram-positive bacteria than nanaomycin A
same,activity against mycoplasma(s),mycoplasmas,as strong activity against fungi and mycoplasmas as nanaomycin A
same,Solubility in ether,Solubility,Soluble
same,"Solubility in methanol, ethanol, ethylacetate, chloroform and acetone",Solubility,Soluble
same,Solubility in n-hexane and petroleum ether,Solubility,Insoluble
same,Solubility in water,Solubility,Insoluble
same,LD50,in vivo,38.5 mg/kg
